Assay results from patent publication US11117890B2, “Substituted isoindole allosteric EGFR inhibitors” (Hoffmann-La Roche Inc., priority 2017, dated 2021).

target: T1, Phospho-EGFR in H1975 cell line (Homo sapiens, UniProt P00533, L858R/T790M); experiment: HTRF Phospo EGFR Assay (Cellular); assay type: cell-based; conditions: H1975 cells; 6 hours compound incubation in starving medium; HTRF anti-Phospho-EGFR readout
T1 construct: H1975 cell line was obtained from American Type Culture Collection; host or cells: H1975
T1 sequence (P00533 25-1210 T790M/L858R): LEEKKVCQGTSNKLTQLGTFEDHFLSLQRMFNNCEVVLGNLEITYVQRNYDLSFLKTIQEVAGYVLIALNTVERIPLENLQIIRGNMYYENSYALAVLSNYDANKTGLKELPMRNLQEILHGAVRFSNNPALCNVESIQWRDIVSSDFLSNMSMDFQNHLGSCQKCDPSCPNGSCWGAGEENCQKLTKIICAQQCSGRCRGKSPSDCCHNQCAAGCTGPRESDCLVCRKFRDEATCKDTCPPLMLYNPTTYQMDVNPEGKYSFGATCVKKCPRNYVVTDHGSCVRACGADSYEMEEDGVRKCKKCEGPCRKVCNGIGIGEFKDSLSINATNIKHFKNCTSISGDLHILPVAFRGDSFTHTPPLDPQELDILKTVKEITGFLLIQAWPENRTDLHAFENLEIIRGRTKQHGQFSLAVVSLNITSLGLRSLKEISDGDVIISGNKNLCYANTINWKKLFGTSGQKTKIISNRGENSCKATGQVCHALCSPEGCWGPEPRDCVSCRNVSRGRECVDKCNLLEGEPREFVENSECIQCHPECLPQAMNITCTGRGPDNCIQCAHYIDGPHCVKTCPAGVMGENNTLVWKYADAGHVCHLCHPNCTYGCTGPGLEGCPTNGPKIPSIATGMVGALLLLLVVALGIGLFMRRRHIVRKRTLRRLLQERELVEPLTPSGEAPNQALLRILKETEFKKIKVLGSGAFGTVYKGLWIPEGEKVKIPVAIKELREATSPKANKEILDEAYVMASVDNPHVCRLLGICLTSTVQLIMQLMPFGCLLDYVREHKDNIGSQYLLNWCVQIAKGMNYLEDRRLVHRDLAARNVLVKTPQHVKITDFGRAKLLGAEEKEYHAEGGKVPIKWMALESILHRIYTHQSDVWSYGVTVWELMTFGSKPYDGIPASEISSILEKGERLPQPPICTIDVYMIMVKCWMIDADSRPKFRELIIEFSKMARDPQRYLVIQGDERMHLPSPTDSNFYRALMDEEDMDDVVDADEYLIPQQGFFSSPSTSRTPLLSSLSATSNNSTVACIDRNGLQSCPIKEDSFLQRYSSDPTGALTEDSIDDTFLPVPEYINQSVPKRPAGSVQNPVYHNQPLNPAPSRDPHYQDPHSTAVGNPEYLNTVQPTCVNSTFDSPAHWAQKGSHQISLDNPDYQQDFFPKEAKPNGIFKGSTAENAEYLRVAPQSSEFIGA
Method: HTRF Phospo EGFR Assay (Cellular)
H1975 cell line was obtained from American Type Culture Collection (Manassas, Va., USA). Cells were maintained at 37° C., 5% CO2 in complete Media RPMI 1640 without phenol red containing 0.3 mg/ml glutamine, 100 IU/ml penicillin, and […] (Gibco) supplemented with 10% fetal bovine serum (FBS) (Gibco). Compounds were diluted into starving medium RPMI 1640 Media without phenol red containing 0.3 mg/ml glutamine, 100 IU/ml penicillin, and […] (Gibco).
Cells were cultured overnight in a 384-well white plate (8000 cells/well) using 8 μl of complete medium/well. Cells were washed two times with 20 μl of starving medium. Media was removed by tapping plates on tissue and subsequently 8 μl of fresh starving medium/well was added. Then 4 μl/well of the 3×compound solution, containing a half-log dilution series of the compound or DMSO in starving medium, were added to the cells. After 6 hours at 37° C., 5% CO2 cells were lysed by adding to the compound mix 4 μl/well of the supplemented lysis buffer, followed by incubation for 30 min at room temperature with shaking. Lysates were stored at −20° C. overnight. The following day plates were thawed and 2 μl of anti-Phospho-EGFR Cryptate and 2 μl of anti-Phospho-EGFR-d2 antibody solutions prepared in the detection buffer were added. The plates were then incubated for at least 4 h at room temperature before reading the fluorescence emission at 620 and 665 nm using PHERAstar FX plate reader (BMG Labtech).

Going from `O=C(Nc1nccs1)C(c1cc(F)ccc1O)N1Cc2ccc(C#Cc3ccnc(Cl)c3)cc2C1=O` (racemic) [Example 19, (2RS)-2-[6-[2-(2-Chloro-4-pyridyl)ethynyl]-1-oxo-isoindolin-2-yl]-2-(5-fluoro-2-hydroxy-phenyl)-N-thiazol-2-yl-acetamide] to `Nc1ccc(C#Cc2ccc3c(c2)C(=O)N(C(C(=O)Nc2nccs2)c2cc(F)ccc2O)C3)cn1` (racemic) [Example 15, (2RS)-2-[6-[2-(6-Amino-3-pyridyl)ethynyl]-1-oxo-isoindolin-2-yl]-2-(5-fluoro-2-hydroxy-phenyl)-N-thiazol-2-yl-acetamide], the IC50 falls from 3 nM to 1 nM (3-fold). The second is the more potent here.

First: Cc1c(C#Cc2ccc(N)nc2)ccc2c1C(=O)N(C(C(=O)Nc1nccs1)c1cc(F)ccc1O)C2 (racemic) [Example 21, (2RS)-2-[6-[2-(6-Amino-3-pyridyl)ethynyl]-7-methyl-1-oxo-isoindolin-2-yl]-2-(5-fluoro-2-hydroxy-phenyl)-N-thiazol-2-yl-acetamide]
Second: O=C(Nc1nccs1)C(c1cc(F)ccc1O)N1Cc2ccc(C#Cc3ccc(CN4CCNCC4)cc3)cc2C1=O (racemic) [Example 29, (2RS)-2-(5-Fluoro-2-hydroxy-phenyl)-2-[1-oxo-6-[2-[4-(piperazin-1-ylmethyl)phenyl]ethynyl]isoindolin-2-yl]-N-thiazol-2-yl-acetamide]
The IC50 of the first is 2.7-fold lower: 3 nM for the first, 8 nM for the second. The first is the more potent here.
